Measurements taken from patent US20210169961A1, “HEPATOPROTECTIVE TRADITIONAL CHINESE MEDICINE COMPOSITION, EXTRACT THEREOF, AND PHARMACEUTICAL USE THEREOF” (SHUGUANG HOSPITAL AFFILIATED TO SHANGHAI UNIVERSITY OF …, priority 2018, published 2021).

Experiments:
Format in all cases: in vivo, human
[1] = tested on: CHB patients (hepatic fibrosis); test: Curative effect on patients with hepatic fibrosis, double-blind placebo-control multicenter trial (Example 34); settings: after 12 months, treatment group: Entecavir + test sample, P<0.001
[2] = tested on: patients with HBeAg negative chronic hepatitis B; test: Curative effects on patients with hepatitis B, randomized controlled trial (Example 31); settings: after 30-month treatment, control group: Entecavir + placebo
[3] = tested on: patients with advanced primary hepatocarcinoma after surgery; test: Curative effect of the compound granules on patients with liver cancer (Example 36); settings: for patients of liver cancer recurred: test sample + Entecavir vs Entecavir

**Q.** What does the source list for `C=C1[C@H](CO)[C@@H](O)C[C@@H]1n1cnc2c(=O)[nH]c(N)nc21` [Entecavir]?
**A.** HBeAg levels compared to those before treatment [1]: remarkably decreased; ALT recurrence rate ([2]; treatment group: test sample 60 g clear extract/day + Entecavir 0.5 mg/day): 93.2%; HBsAg averagely reduced by ([2]; treatment group: test sample + Entecavir): 0.028 log IU/ml; therapeutic effects on traditional Chinese medicine symptoms: invalid cases ([3]; after treatment): 65 cases; therapeutic effects on traditional Chinese medicine symptoms: patients with curative effect ([3]; after treatment): 0 patients; therapeutic effects on traditional Chinese medicine symptoms: valid cases ([3]; after treatment): 16 cases; patients with nausea and vomiting improved ([3]; among 38 patients (treatment group) / 51 patients (control group)): 15 cases; patients with tastelessness improved ([3]; among 61 patients (treatment group) / 58 patients (control group)): 25 cases; patients with stomach distension improved ([3]; among 68 patients (treatment group) / 62 patients (control group)): 35 cases; patients with fatigue and acratia improved ([3]; among 73 patients (treatment group) / 69 patients (control group)): 45 cases; patients of liver cancer recurred ([3]; at 3 months of follow-up visit): 48 patients; patients of liver cancer recurred ([3]; at 3 months of treatment): 13 patients; patients of liver cancer recurred ([3]; at 6 months of treatment): 44 patients; accumulative survival rate ([3]; treatment group: test sample 60 g clear extract/day + Entecavir 0.5 mg/day, control group: Entecavir 0.5 mg/day): 76.7%
